The numbers were not newly measured in US20020010550A1, “PHARMACOKINETIC-BASED DRUG DESIGN TOOL AND METHOD” (priority 1998, published 2002), which cites them from elsewhere.

Where two headings read alike, the source gives them in different places.

Data set [1] concerns rabbit intestinal tissue (duodenum, jejunum, ileum, colon). The conditions noted are these: donor concentration given with each compound.
A further data set relates to intestinal transport. The conditions noted are these: permeability standards.
The conditions of data set [2]: Plasma Kinetics.
For data set [3] the following is noted: human.

For the compound `O=C[C@H](O)[C@@H](O)[C@H](O)[C@H](O)CO` [D-glucose], the Pe in data set [1] (Colon) is 9.28 ×10⁻⁶ cm/s; in data set [1] (Duodenum), 4.55 ×10⁻⁶ cm/s; in data set [1] (Ileum) it was 14.5 ×10⁻⁶ cm/s; in data set [1] (Jejunum), 10.2 ×10⁻⁶ cm/s. The Transport mechanism result with intestinal transport is on record as “Carrier-mediated Influx”.

`Nc1nc2c(ncn2COC(CO)CO)c(=O)[nH]1.[Na]` [Gancyclovir, 9-(1,3-dihydroxy-2-propoxymethyl)guanine, monosodium salt]: in data set [2], the “Fluid Volume” value was 76,800 ml, the k12 is 0.839, the k21 is recorded as 0.670 and the kelim is recorded as 0.161. The “bioavailability of fasted patients in clinical trials” value in data set [3] (fasted, oral) is recorded as 3-20%. For the same compound, in data set [3] (in vivo), the absorption entry is reported as “poorly absorbed” and the in vivo biotransformation entry was “no in vivo biotransformation”.

In the case of `OC[C@@H](O)[C@@H](O)[C@H](O)[C@H](O)CO` [mannitol], the Pe is 5.53 ×10⁻⁶ cm/s in data set [1] (Colon), 1.73 ×10⁻⁶ cm/s in data set [1] (Duodenum), 4.02 ×10⁻⁶ cm/s in data set [1] (Ileum) and 3.54 ×10⁻⁶ cm/s in data set [1] (Jejunum). The Transport mechanism result in the data set with intestinal transport is “Passive Paracellular”.

Regarding `C[C@]12CCC(=O)C=C1CC[C@@H]1[C@@H]2[C@@H](O)C[C@@]2(C)[C@H]1CC[C@]2(O)C(=O)CO` [hydrocortisone], the Pe in data set [1] (Colon) is 3.85 ×10⁻⁶ cm/s; in data set [1] (Duodenum) it was 0.3 ×10⁻⁶ cm/s; in data set [1] (Ileum) it was 2.91 ×10⁻⁶ cm/s; in data set [1] (Jejunum), 1.31 ×10⁻⁶ cm/s.
